Data as given in publication PMC2362906, “Effects of new 17α-hydroxylase/C17,20-lyase inhibitors on LNCaP prostate cancer cell growth in vitro and in vivo” (British Journal of Cancer, 1999).

Experiments:
LNCaP cells [1] = assay: Testosterone-stimulated wild-type LNCaP cell growth; format: cell-based, human; details: 0.1 nM testosterone; for Effect on testosterone-stimulated cell growth (words): 0.5-5.0 μM compound, 9 days
Text: (§1) Prostate cancer is the most common malignancy and the second leading cause of cancer-related deaths among men in the US and the UK (Shibata et al, 1998). […] Steroidal 17-hydroxylase/C17,20 -lyase (P450c17) (EC 1.14.99.0) was selected as the target enzyme for inhibition, as this is a key regulatory enzyme of androgen synthesis. P450c17 catal- yses two sequential reactions in the steroid biosynthetic pathway and converts pregnenolone and progesterone to the C-19 andro- gens, dehydroepiandrosterone and androstenedione respectively. This enzyme has an identical amino acid sequence in testicular and adrenal tissues (Chung et al, 1987). […] In order to evaluate the effectiveness of these inhibitors we developed a multi-step system, which utilized the LNCaP human prostate cancer cell line. LNCaP cells remain the only androgen receptor (AR)-positive prostate cancer cell line, that can be readily grown in tissue culture (Horoszewicz et al, 1983). These cells respond to androgens with increased cell proliferation and elevated expression of prostate specific antigen (PSA) (Berns et al, 1993). LNCaP cells at early passages are not only androgen-responsive, but also androgen- dependent (Pousette et al, 1997). This is similar to the situation in most tumours of prostatic cancer patients, which are initially highly responsive and dependent on androgens. […] Therefore, we employed LNCaP cells as a model for evaluating the effectiveness of our new inhibitors of androgen synthesis. In this study the compounds selected for evaluation were two groups of azolyl steroids. […] Here we report on the application of LNCaP-CYP17-transfected cells for determining the inhibitory potencies of the new compounds against the P450c17 enzyme. […] We designed and evaluated two groups of azolyl steroids: 5-non-competitive inhibitors (5NCIs), VN/63-1, VN/85-1, VN/87-1 and their corresponding 4 derivatives (4NCIs), VN/107-1, VN/108-1 and VN/109-1. The human P450c17 gene was transfected into LNCaP human prostate cancer cells, and the resultant LNCaP- CYP17 cells were utilized to evaluate the inhibitory potency of the new azolyl steroids. […] We further evaluated our inhibitors in male severe combined immuno- deficient mice bearing LNCaP tumour xenografts. […] We also utilized wild-type LNCaP prostatic carcinoma cells for evaluating the direct effects of new azolyl steroids on proliferation of these cells in vitro and in vivo. MATERIALS AND METHODS Materials The human prostate cancer cell line LNCaP was obtained from the American Type Culture Collection (Rockville, MD, USA). RPMI- 1640 medium, trypsin-EDTA (0.25%/0.02%), penicillin/strepto- mycin (P/S), geniticin (G418), and LipofectAMINE were from Gibco-BRL (Grand Island, NY, USA). Fetal bovine serum (FBS) was obtained from Summit Biotechnology Inc. (Fort Collins, CO, USA) and steroid-free FBS was prepared as described previously (Klus et al, 1996). Phenol red free IMEM and trypsin-versine were purchased from Biofluids Inc. (Rockville, MD, USA). Chloroform and acetonitrile were purchased from JT Baker, Inc (Phillipsburg, NJ, USA). Hydroxypropyl cellulose (HPC) was purchased from Sigma Chemical Co. (St Louis, MO, USA). The PSA enzyme- linked immunusorbent assay (ELISA) kit was from DSL Inc. (Webster, TX, USA). Matrigel was generously supplied by Dr Hynda Kleinman (NIH, Bethesda, MD, USA). Inhibitors of androgen synthesis: VN/63-1, VN/85-1, VN/87-1, VN/107-1, VN/108-1 and VN/109-1 were synthesized in our labo- ratory as previously described (Njar et al, 1998). […] Metribolone [17-methyl-3 H]-R1881 ([3 H]-R1881: specific activity 86 Ci mmol-1 ) was purchased from Dupont NEN (Boston, MA, USA).

LNCaP cells [2] = assay: DHT-stimulated wild-type LNCaP cell growth; format: cell-based, human; details: 0.03 nM DHT, 9 days
Text: as §1

LNCaP cells [3] = assay: LNCaP cell growth in steroid-free medium; format: cell-based, human
Text: Prostate cancer is the most common malignancy and the second leading cause of cancer-related deaths among men in the US and the UK (Shibata et al, 1998). […] Steroidal 17-hydroxylase/C17,20 -lyase (P450c17) (EC 1.14.99.0) was selected as the target enzyme for inhibition, as this is a key regulatory enzyme of androgen synthesis. P450c17 catal- yses two sequential reactions in the steroid biosynthetic pathway and converts pregnenolone and progesterone to the C-19 andro- gens, dehydroepiandrosterone and androstenedione respectively. This enzyme has an identical amino acid sequence in testicular and adrenal tissues (Chung et al, 1987). […] In order to evaluate the effectiveness of these inhibitors we developed a multi-step system, which utilized the LNCaP human prostate cancer cell line. LNCaP cells remain the only androgen receptor (AR)-positive prostate cancer cell line, that can be readily grown in tissue culture (Horoszewicz et al, 1983). These cells respond to androgens with increased cell proliferation and elevated expression of prostate specific antigen (PSA) (Berns et al, 1993). LNCaP cells at early passages are not only androgen-responsive, but also androgen- dependent (Pousette et al, 1997). This is similar to the situation in most tumours of prostatic cancer patients, which are initially highly responsive and dependent on androgens. […] Therefore, we employed LNCaP cells as a model for evaluating the effectiveness of our new inhibitors of androgen synthesis. In this study the compounds selected for evaluation were two groups of azolyl steroids. […] Here we report on the application of LNCaP-CYP17-transfected cells for determining the inhibitory potencies of the new compounds against the P450c17 enzyme. […] We designed and evaluated two groups of azolyl steroids: 5-non-competitive inhibitors (5NCIs), VN/63-1, VN/85-1, VN/87-1 and their corresponding 4 derivatives (4NCIs), VN/107-1, VN/108-1 and VN/109-1. The human P450c17 gene was transfected into LNCaP human prostate cancer cells, and the resultant LNCaP- CYP17 cells were utilized to evaluate the inhibitory potency of the new azolyl steroids. […] We further evaluated our inhibitors in male severe combined immuno- deficient mice bearing LNCaP tumour xenografts. […] We also utilized wild-type LNCaP prostatic carcinoma cells for evaluating the direct effects of new azolyl steroids on proliferation of these cells in vitro and in vivo. MATERIALS AND METHODS Materials The human prostate cancer cell line LNCaP was obtained from the American Type Culture Collection (Rockville, MD, USA). RPMI- 1640 medium, trypsin-EDTA (0.25%/0.02%), penicillin/strepto- mycin (P/S), geniticin (G418), and LipofectAMINE were from Gibco-BRL (Grand Island, NY, USA). […]

LNCaP tumour xenografts = assay: LNCaP tumour xenograft growth in male SCID mice; format: in vivo; details: 50 mg kg-1 day-1, 28 days
Text: as §1

serum testosterone = assay: Serum testosterone (RIA) in SCID mice; format: in vivo, male SCID mice; details: 28 days of treatment, 50 mg kg-1 day-1
Text: as §1

serum DHT = assay: Serum DHT (RIA) in SCID mice; format: in vivo, male SCID mice; details: 28 days of treatment, 50 mg kg-1 day-1
Text: as §1

[4] = target: human prostatic 5-reductase; set-up: method as in Njar et al, 1998; details: human prostatic microsomes; reported previously; ref Njar et al, 1998; cited from earlier work
[5] = target: T1, human 17α-hydroxylase/C17,20-lyase (P450c17) expressed in LNCaP-CYP17 cells (Homo sapiens, UniProt P05093); assay: [3H]-acetic acid releasing assay (AARA) with LNCaP-CYP17 cells; format: cell-based; details: LNCaP-CYP17 cells, 7 μM [21-3H]17-OHP5, 16 h; mean ± s.e.m., three experiments
T1 sequence (P05093 9-508 limits assumed): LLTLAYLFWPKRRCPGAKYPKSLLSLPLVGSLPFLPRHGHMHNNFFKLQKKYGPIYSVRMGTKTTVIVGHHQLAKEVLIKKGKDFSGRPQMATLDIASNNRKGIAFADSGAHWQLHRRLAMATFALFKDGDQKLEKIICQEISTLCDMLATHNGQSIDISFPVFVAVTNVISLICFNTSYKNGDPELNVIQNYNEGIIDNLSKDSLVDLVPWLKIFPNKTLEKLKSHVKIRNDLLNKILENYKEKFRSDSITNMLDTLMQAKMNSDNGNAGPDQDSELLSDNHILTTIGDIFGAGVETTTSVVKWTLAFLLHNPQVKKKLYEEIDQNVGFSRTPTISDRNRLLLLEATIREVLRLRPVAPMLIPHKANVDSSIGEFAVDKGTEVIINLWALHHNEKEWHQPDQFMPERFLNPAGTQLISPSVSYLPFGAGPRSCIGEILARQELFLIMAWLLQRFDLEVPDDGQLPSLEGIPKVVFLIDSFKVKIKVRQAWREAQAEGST

serum PSA = assay: Serum PSA (ELISA) in LNCaP tumour-bearing SCID mice; format: in vivo, male SCID mice; details: 50 mg kg-1 day-1, 28 days
Text: Prostate cancer is the most common malignancy and the second leading cause of cancer-related deaths among men in the US and the UK (Shibata et al, 1998). […] Steroidal 17-hydroxylase/C17,20 -lyase (P450c17) (EC 1.14.99.0) was selected as the target enzyme for inhibition, as this is a key regulatory enzyme of androgen synthesis. P450c17 catal- yses two sequential reactions in the steroid biosynthetic pathway and converts pregnenolone and progesterone to the C-19 andro- gens, dehydroepiandrosterone and androstenedione respectively. This enzyme has an identical amino acid sequence in testicular and adrenal tissues (Chung et al, 1987). […] In order to evaluate the effectiveness of these inhibitors we developed a multi-step system, which utilized the LNCaP human prostate cancer cell line. LNCaP cells remain the only androgen receptor (AR)-positive prostate cancer cell line, that can be readily grown in tissue culture (Horoszewicz et al, 1983). These cells respond to androgens with increased cell proliferation and elevated expression of prostate specific antigen (PSA) (Berns et al, 1993). LNCaP cells at early passages are not only androgen-responsive, but also androgen- dependent (Pousette et al, 1997). This is similar to the situation in most tumours of prostatic cancer patients, which are initially highly responsive and dependent on androgens. […] Therefore, we employed LNCaP cells as a model for evaluating the effectiveness of our new inhibitors of androgen synthesis. In this study the compounds selected for evaluation were two groups of azolyl steroids. […] Here we report on the application of LNCaP-CYP17-transfected cells for determining the inhibitory potencies of the new compounds against the P450c17 enzyme. […] We designed and evaluated two groups of azolyl steroids: 5-non-competitive inhibitors (5NCIs), VN/63-1, VN/85-1, VN/87-1 and their corresponding 4 derivatives (4NCIs), VN/107-1, VN/108-1 and VN/109-1. The human P450c17 gene was transfected into LNCaP human prostate cancer cells, and the resultant LNCaP- CYP17 cells were utilized to evaluate the inhibitory potency of the new azolyl steroids. […] We further evaluated our inhibitors in male severe combined immuno- deficient mice bearing LNCaP tumour xenografts. […] We also utilized wild-type LNCaP prostatic carcinoma cells for evaluating the direct effects of new azolyl steroids on proliferation of these cells in vitro and in vivo. MATERIALS AND METHODS Materials The human prostate cancer cell line LNCaP was obtained from the American Type Culture Collection (Rockville, MD, USA). RPMI- 1640 medium, trypsin-EDTA (0.25%/0.02%), penicillin/strepto- mycin (P/S), geniticin (G418), and LipofectAMINE were from Gibco-BRL (Grand Island, NY, USA). Fetal bovine serum (FBS) was obtained from Summit Biotechnology Inc. (Fort Collins, CO, USA) and steroid-free FBS was prepared as described previously (Klus et al, 1996). Phenol red free IMEM and trypsin-versine were purchased from Biofluids Inc. (Rockville, MD, USA). Chloroform and acetonitrile were purchased from JT Baker, Inc (Phillipsburg, NJ, USA). Hydroxypropyl cellulose (HPC) was purchased from Sigma Chemical Co. (St Louis, MO, USA). The PSA enzyme- linked immunusorbent assay (ELISA) kit was from DSL Inc. (Webster, TX, USA). Matrigel was generously supplied by Dr Hynda Kleinman (NIH, Bethesda, MD, USA). […]

[6] = Table 2, first experiment, control 1.043
[7] = Table 3, second experiment, control 0.205
[8] = Table 2, first experiment, control 243.8
[9] = Table 3, second experiment, control 239.2

Compound | Effect on testosterone-stimulated cell growth (words) (LNCaP cells [1]) | Effect on testosterone-stimulated cell growth (words) (LNCaP cells [1]; listed as ketoconazole) | Stimulation of cell growth compared to DHT-treated cells (LNCaP cells [2]) | Stimulation of LNCaP cell growth in steroid-free media (LNCaP cells [3]; high concentrations (2.5 and 5.0 μM), 9 days) | Effect on tumour growth (words) (LNCaP tumour xenografts; second experiment) | Serum Testosterone (serum testosterone; [6]) [ng/mL] | Serum Testosterone (serum testosterone; [7]) [ng/mL] | Serum DHT (serum DHT; [8]) [pg/mL] | Serum DHT (serum DHT; [9]) [pg/mL] | IC50 [4] [µM] | IC50 [5] [µM] | Inhibition of testosterone stimulated cell growth (LNCaP cells [1]; compound at 2.5 and 5.0 μM) | inhibition at 5 µM (LNCaP cells [3]; Homo sapiens, LNCaP, 5 μM concentration) [%] | Inhibition of LNCaP cell growth in steroid-free media (LNCaP cells [3]; concentrations of 1.0-5.0 μM, 9 days) | Reduction of tumour weights compared to vehicle-treated mice (LNCaP tumour xenografts; first experiment) [%] | Inhibition of LNCaP tumour growth (tumour volume) (LNCaP tumour xenografts; second experiment) [%] | Reduction of tumour weights (LNCaP tumour xenografts; second experiment) [%] | Serum PSA levels versus control (serum PSA; first experiment) | Serum PSA levels versus control (serum PSA; second experiment)
CC(=O)N1CCN(c2ccc(OCC3COC(Cn4ccnc4)(c4ccc(Cl)cc4Cl)O3)cc2)CC1 (centres unmarked) [Ketoconazole, reference compound] | stimulate cell proliferation at low concentrations | biphasic growth responses | 10-20% | 30-40% | Neither VN/63-1, VN/107 nor ketoconazole had any appreciable effects | 1.526 | 0.298 | 224.3 | 218.0 | > 5 |  |  |  |  |  |  |  |  | 
CC(C)C(=O)Nc1ccc([N+](=O)[O-])c(C(F)(F)F)c1 [Flutamide, reference compound] |  |  | 10-20% |  |  |  |  |  |  |  | > 5 | ~ 50% |  |  |  |  |  |  | 
CC(C)(C)NC(=O)[C@H]1CC[C@H]2[C@@H]3CC[C@H]4NC(=O)C=C[C@]4(C)[C@H]3CC[C@]12C [Finasteride, reference compound] |  |  |  |  |  | 1.389 | 0.638 | 137.0 | 223.4 | 0.033 | > 5 |  | 25 | 20-30% | 22 | 29 | 28 | significantly lower | significantly lower
